Experimental data as given in patent publication US4622327A, “2H-azeto[2,1-a]-isoquinoline derivatives and pharmaceutical compositions containing them” (Richter Gedeon Vegyeszeti Gyar R.T., priority 1983, dated 1986).

Tests used:
tonic, extensoric spasm = assay: Maximum electroshock; type: in vivo; details: mice, 30 mg/kg oral, one hour before test
Experimental: (§1) For the pharmacological tests CFLP (LATI) mice of both sexes, weighing 18 to 22 g each and male Han. Wistar (LATI) rats weighing 160 to 180 g each were used. The test materials were administered orally, in 30 mg/kg doses, in the form of a suspension containing 5% of Tween 80, one hour before the tests.
1. Maximum electroshock (mice)
The shock was applied through a corneal electrode (20 mA, 0.2 msec, HSE Schockgerat typ. 207).

pentylenetetrazole spasm = assay: Metrazole spasm; type: in vivo; details: mice, 30 mg/kg oral, pentylenetetrazole 125 mg/kg s.c., observation one hour
Experimental: as §1
2. Metrazole spasm (mice)
After pretreatment the animals were administered 125 mg/kg of pentylenetetrazole subcutaneously.
Observation time: one hour (Everett L. M. and Richards R. K.: J. Pharmacol. Exp. Ther. 81, 402/1944/).

[1] = system: hyperthermia induced with Brewer's yeast; assay: Antipyretic activity (Brewer's yeast hyperthermia); type: in vivo, rats; details: for ED50: Rattus norvegicus, po, read-out: Antipyretic activity, ED50
Experimental: as §1
5. Antipyretic activity (rats)
Hyperthermia is induced in rats with Brewer's yeast suspension (0.5% of Brewer's yeast, 1% of arabic gum in a volume of 0.3 ml, s.c.). The animals are treated with the test materials 4 hours later, and the tracheal temperature of the animals is registered with an ELAB thermometer (typ. TE-3) for 4 hours. The antipyretic activity is expressed in percentage of the animals which have an at least one centrigrade lower temperature than the average of the temperature of the control group treated with the solvent (Nimegeers C. J. E. et al.: Arzneimittel Forsch. 25:15/9/1975/).

[2] = system: acetic acid-induced writhing syndrome; assay: Analgesic activity (acetic acid writhing syndrome); type: in vivo, mice; details: for Analgesic activity: 30 mg/kg oral, change in writhing frequency vs control
Experimental: as §1
4. Analgesic activity (mice)
One hour after pretreatment, mice were administered 0.4 ml of a 0.6% acetic acid solution intraperitoneally, as a pain stimulus. The frequency of writhing syndrome is registered for 30 minutes. The changes observed as a result of treatment with the test compounds is related to the mean value of the frequency of writhing syndrome in the control group, and the difference is expressed in percentage (Koster R. et al.: Exp. Ther. 72:74/1941/).

Row | SMILES | Antispasm activity, max. electroshock (tonic, extensoric spasm) | Antispasm activity, metrazole, b (tonic extensoric spasm) (pentylenetetrazole spasm) | Antipyretic activity ([1]; rats, 30 mg/kg oral, % of animals with at least one centigrade lower temperature than control) [%] | Analgesic activity ([2]; mice) [%] | ED50 [1] [mg/kg] | analgesic effect in words ([2]; 30 mg/kg) | ED50 ([2]; Mus musculus, po, read-out: Analgesic activity, ED50) [mg/kg] | antipyretic potency relative to Na-salicylate ([1]; rats) | decrease of the frequency of acetic acid-induced writhing syndrome ([2]; mice, 30 mg/kg)
1 | CCOc1cc2c(cc1OCC)C1C(CCl)CN1CC2.Cl (stereo not shown) [Compound B, 1-(chloromethyl)-7,8-diethoxy-1,4,5,9b-tetrahydro-2H-azeto[2,1-a]isoquinoline hydrochloride] | 20.0 | 24.0 | 30.0 | 20.0 |  |  |  |  | 
2 | O=C(O)c1ccccc1O [Na--salycilate, reference compound] |  | 20.0 |  |  | 110 | ineffective | 113 |  | 
3 | COc1cc2c(cc1OC)C1C(CCl)CN1CC2.I (stereo not shown) [Compound A, 1-(chloromethyl)-7,8-dimethoxy-1,4,5,9b-tetrahydro-2H-azeto[2,1-a]isoquinoline hydroiodide] |  | 20.0 |  | 30.0 | 75 |  |  | one and a half-times more potent | about 30%
